Like-named read-outs stand apart in the source and are kept apart here.
Experiments:
[1] = system: human epidermoid cervix carcinoma KB3-1 cells; assay: MTT cell viability assay, KB3-1; type: cell-based
Protocol: (§1) The MTT cell viability assay was performed 72 h after cells treatment with various concentrations of studied compounds and doxorubicin, a reference drug. […] It is known that ABCB1 (P-glycoprotein), MRP1/ABCC1 (multidrug resistance protein 1), and BCRP/BCG2 (breast cancer resistance protein) have been reported to be key players in resistance to chemotherapy. […] The p53 has diverse mutations in almost all human tumors, stimulating their hyper-proliferation, invasion/metastasis, and thus, influencing the potency of various chemotherapeutics (i.e., platins and anti-metabolites).
(§2) Human colon carcinoma HCT116 cells, human breast adenocarcinoma cells of MCF-7 line, human T-leukemia Jurkat cells, human chronic myelogenous leukemia K562 cells, and human keratinocytes of HaCaT line were from the Cell Collection of R.E. Kavetsky Institute of Experimental Pathology, Oncology and Radiobiology (Kyiv, Ukraine). Murine macrophages of J774.2 line were a generous gift from Professor Sir John Vane (William Harvey Research Institute, London, UK) via Professor Janusz Marcinkiewicz (Jagiellonian University Medical College, Krakow, Poland). Human colon carcinoma HCT116 p53-/- cells with knockdown of P53 gene, as well as human epidermoid cervix carcinoma KB3-1 cells and its ABCB1-overexpressing subline KBC-1, were kindly provided by Professor W. Berger (Institute of Cancer Research, Medical University of Vienna, Austria). […] Human leukemia monocytic THP-1 cells were kindly provided by Professor M. Herrmann (Department of Internal Medicine, Institute for Clinical Immunology and Rheumatology, University of Erlangen-Nuremberg, Germany). Cells were cultured in DMEM or RPMI-1640 medium supplemented with 10% fetal bovine serum (all were purchased from Biowest, Nuaille, France) at 37 °C in a humidified atmosphere containing 5% CO2.
(§3) MTT assay was used to examine the viability of tumor and pseudo-normal cells after their treatment with studied thiopyrano[2,3-d]thiazole derivatives and doxorubicin (Actavis S.R.L., Bucharest, Romania). Cells were seeded in 96-well plates at a density of 3–5 × 103. After 24 h, cells were treated with compound […], 1,4-NQ (0.1–100 µM), and doxorubicin (0.1–100 µM). After incubation for 72 h, MTT reagent (Sigma-Aldrich, St. Louis, MO, USA) was added to each well, according to the Sigma-Aldrich protocol. An absorbance Reader BioTek ELx800 (BioTek Instruments, Inc., Winooski, VT, USA) was used to measure the reaction product.

[2] = system: Human colon carcinoma HCT116 cells (HCT116wt); assay: MTT cell viability assay, HCT116wt; type: cell-based
Protocol: as §1, §2, §3

[3] = system: Human colon carcinoma HCT116 p53-/- cells; assay: MTT cell viability assay, HCT116 p53-/-; type: cell-based; details: MTT, 72 h, read-out: IC50, HCT116 p53-/-
Protocol: as §1, §2, §3

[4] = system: human breast adenocarcinoma cells of MCF-7 line; assay: MTT cell viability assay, MCF-7; type: cell-based
Protocol: as §1, §2, §3

[5] = system: Murine macrophages of J774.2 line; assay: MTT cell viability assay, J774.2; type: cell-based; details: pseudo-normal murine macrophages
Protocol: as §1, §2, §3

[6] = system: human chronic myelogenous leukemia K562 cells; assay: MTT cell viability assay, K562; type: cell-based
Protocol: as §1, §2, §3

[7] = system: panel of sixty cancer cell lines; assay: NCI single-dose (10 μM) anticancer screen, sulforhodamine B, 60-cell-line panel; type: cell-based, human; details: 48 h
Protocol: (§4) Considering the results of previous studies of fused thiazolidinones and their analogs, a series of thiopyrano[2,3-d]thiazoles with naphthoquinone fragments in the structure were studied for their anticancer activity. Thus, synthesized thiopyranothiazole derivatives 3.5 and 3.6 were selected by the National Cancer Institute (NCI), U.S., for their anticancer activity at 10 μM concentration toward a panel of sixty cancer cell lines representing nine different types (leukemia, melanoma, lung, colon, CNS, ovarian, renal, prostate, and breast cancers) (Figures S13–S14). Selection for screening based on new derivatives’ ability to add diversity to the NCI small molecules collection and anticancer assays were performed according to the NCI guidelines and protocols previously described. The compounds were added at the mentioned concentration, and the cell cultures were incubated for 48 h. The results for each compound were reported as the growth percent (GP%) of treated cells compared with untreated control cells.
Anticancer in vitro assay was performed on the human tumor cell lines panel derived from nine neoplastic diseases by the protocol of the Drug Evaluation Branch, National Cancer Institute, Bethesda, MD, USA [44, 45, 46]. Tested compounds were added to the culture at a single concentration (10^−5 M), and the cultures were incubated for 48 h. Endpoint determinations were made with a protein binding dye, sulforhodamine B. Results for each tested compound were reported as the GP% of the treated cells compared to untreated control cells. GP% was spectrophotometrically evaluated vs. controls not treated with test agents.

RPMI-8226/Leukemia = assay: NCI single-dose screen, RPMI-8226; type: cell-based, human; details: 10 μM, 48 h
Protocol: as §4
(§5) Anticancer in vitro assay was performed on the human tumor cell lines panel derived from nine neoplastic diseases by the protocol of the Drug Evaluation Branch, National Cancer Institute, Bethesda, MD, USA [44, 45, 46]. […] GP% was spectrophotometrically evaluated vs. controls not treated with test agents.

SR/Leukemia = assay: NCI single-dose screen, SR; type: cell-based, human; details: 10 μM, 48 h
Protocol: as §4, §5

[8] = system: EKVX/Non-Small Cell Lung Cancer; assay: NCI single-dose screen, EKVX; type: cell-based, human; details: 10 μM, 48 h
Protocol: as §4, §5

IGROV1/Ovarian Cancer = assay: NCI single-dose screen, IGROV1; type: cell-based, human; details: 10 μM, 48 h
Protocol: as §4, §5

UO-31/Renal Cancer = assay: NCI single-dose screen, UO-31; type: cell-based, human; details: 10 μM, 48 h
Protocol: as §4, §5

T-47D/Breast Cancer = assay: NCI single-dose screen, T-47D; type: cell-based, human; details: 10 μM, 48 h
Protocol: as §4, §5

[9] = system: KBC-1 (ABCB1-overexpressing subline of KB3-1); assay: MTT cell viability assay, KBC-1; type: cell-based; details: Homo sapiens, 72 h
Protocol: as §1
as §2, with “Cells were cultured in DMEM or RPMI-1640 medium supplemented with 10% fetal bovine serum (all were purchased from Biowest, Nuaille, France) at 37 °C in a humidified atmosphere containing 5% CO2.” left out
MTT assay was used to examine the viability of tumor and pseudo-normal cells after their treatment with studied thiopyrano[2,3-d]thiazole derivatives and doxorubicin (Actavis S.R.L., Bucharest, Romania). […] An absorbance Reader BioTek ELx800 (BioTek Instruments, Inc., Winooski, VT, USA) was used to measure the reaction product.

[10] = system: isolated normal human peripheral blood lymphocytes; assay: MTT cell viability assay, isolated lymphocytes; type: cell-based; details: Homo sapiens, Lymphocyte, 72 h, read-out: IC50, Isolated lymphocytes, MTT, 72 h, normal human peripheral blood lymphocytes
Protocol: We continued the cytotoxicity study of synthesized derivatives 3.1–3.6 toward tumor and pseudo-normal cells in vitro. The MTT cell viability assay was performed 72 h after cells treatment with various concentrations of studied compounds and doxorubicin, a reference drug. […] The THP-1 cells, monocytes isolated from peripheral blood from an acute monocytic leukemia patient, were also sensitive to the 3.6 treatment. […] The 3.6 inhibited the viability of epidermoid carcinoma (KB3-1 and its ABCB1-overexpressing subline KBC-1) and colon carcinoma (HCT116wt and its p53 knockdown subline HCT116 p53-/-) cells. It is known that ABCB1 (P-glycoprotein), MRP1/ABCC1 (multidrug resistance protein 1), and BCRP/BCG2 (breast cancer resistance protein) have been reported to be key players in resistance to chemotherapy. […] Thus, the p53 status of colon carcinoma cells influenced the anti-tumor effects of the studied 3,5,10,11-tetrahydro-2H-benzo[6,7]thiochromeno[2,3-d][1, 3]thiazole-2,5,10-trione. The p53 has diverse mutations in almost all human tumors, stimulating their hyper-proliferation, invasion/metastasis, and thus, influencing the potency of various chemotherapeutics (i.e., platins and anti-metabolites). […] Based on our findings, one can assume a p53-dependent mode of action for 3.6 toward colon cancer cells.
as §3
The study protocol with human lymphocytes isolated from healthy adult peripheral blood was approved by BioEthics Committee of the Institute of Cell Biology of National Academy of Sciences of Ukraine (protocol No 2 from 27 January 2019), and with written consent of donor.

salmon sperm DNA = assay: DNA/methyl green colorimetric (replacement) assay; type: binding; details: 1µM
Protocol: In addition, we used DNA/methyl green colorimetric assay to study the possible interaction of compound 3.6 in DNA. […] This assay was used to measure the displacement of methyl green from DNA by compounds with the ability to intercalate DNA [54].
The capacity of the tested compounds to intercalate into salmon sperm DNA was determined using the methyl green assay. Briefly, salmon sperm DNA (10 mg/mL) was incubated for 1 h at 37 °C with 15 µL of methyl green solution (1 mg/mL in H2O). The compounds were added at concentrations 1 and 10 µM/mL and incubated at 37 °C in the dark for 2 h. Reduction of the absorbance of methyl green at 642 nm induced by the test compounds was measured with a multiplate reader, Plate Reader BioTek Lx80 ( BioTek Instruments, Inc., Winooski, VT, USA). Doxorubicin, a well-known intercalating agent, was used as a positive control.

Compound	IC50 ([1]; Homo sapiens, KB 3-1, 72 h) [µM]	IC50 ([2]; Homo sapiens, HCT-116, 72 h) [µM]	IC50 ([3]; Homo sapiens, HCT-116) [µM]	IC50 ([4]; Homo sapiens, MCF7, 72 h) [µM]	IC50 ([5]; Mus musculus, J774.2, 72 h) [µM]	IC50 ([6]; Homo sapiens, K562, 72 h) [µM]	melting point [°C]	also measured
O=C1C2=C(C(=O)c3ccccc31)C(C=Cc1ccccc1[N+](=O)[O-])c1sc(=O)[nH]c1S2 (stereo not shown) [Compound 3.2, 11-(2-Nitrostyryl)-3,11-dihydro-2H-benzo[6,7]thiochromeno[2,3-d]thiazole-2,5,10-trione]	39.2	6.81	> 50	8.47	0.74	26	330 to 332	
11-(2-Phenylprop-1-en-1-yl)-3,11-dihydro-2H-benzo[6,7]thiochromeno[2,3-d]thiazole-2,5,10-trione [Compound 3.3]								IC50 ([1]; 72 h): 28.8 µM; IC50 ([2]; 72 h): 15.8 µM; IC50 [3]: 11.1 µM; IC50 ([4]; 72 h): 26.8 µM; IC50 ([5]; 72 h): 30.5 µM; IC50 ([6]; 72 h): 13 µM
O=C1C2=C(C(=O)c3ccccc31)C1(CCCC1)c1sc(=O)[nH]c1S2 [Compound 3.5, Spiro[benzo[6,7]thiochromeno[2,3-d]thiazole-11,1’-cyclopentane]-2,5,10(3H)-trione]	> 50	43.6	> 50	> 50	> 50	> 50	231 to 233	Mean Growth, % ([7]; growth percent vs untreated control, 60 cell lines): 88.33%; Range of Growth, % ([7]; range over 60 cell lines): 51.21 to 126.93%; Most Sensitive Cell Line Growth, % (RPMI-8226/Leukemia) (RPMI-8226/Leukemia): 53.82%; Most Sensitive Cell Line Growth, % (SR/Leukemia) (SR/Leukemia): 59.89%; Most Sensitive Cell Line Growth, % (EKVX/Non-Small Cell Lung Cancer) [8]: 54.98%; Most Sensitive Cell Line Growth, % (IGROV1/Ovarian Cancer) (IGROV1/Ovarian Cancer): 55.15%; Most Sensitive Cell Line Growth, % (UO-31/Renal Cancer) (UO-31/Renal Cancer): 55.54%; Most Sensitive Cell Line Growth, % (T-47D/Breast Cancer) (T-47D/Breast Cancer): 51.21%
O=C1C=CC(=O)c2ccccc21 [1,4-NQ, 1,4-naphthoquinone]	20.7							IC50 [9]: 8.33 µM; IC50 [10]: 62.9 µM; percentage of methyl green replacement (salmon sperm DNA): 65%
O=C1C2=C(C(=O)c3ccccc31)C(C=Cc1ccccc1)c1sc(=O)[nH]c1S2 (stereo not shown) [Compound 3.1, 11-Styryl-3,11-dihydro-2H-benzo [6,7]thiochromeno [2,3-d]thiazole-2,5,10-trione]	37	29.2	40.3	9.19	24.4	43.7	338 to 340	
CC1(C)C2=C(Sc3[nH]c(=O)sc31)C(=O)c1ccccc1C2=O [Compound 3.4, 11,11-Dimethyl-3,11-dihydro-2H-benzo[6,7]thiochromeno[2,3-d]thiazole-2,5,10-trione]	26	5.54	25.2	34.3	11.1	7.11	230 to 232	
